For 26 compounds, IC50 results are on record in patent publication US11691951B2 (Curtana Pharmaceuticals, Inc., priority 2015, dated 2023).

pIC50: −log10 of the molar value. Where only a bound is given, the exact number is not on record here.

The subject of the experiment is GBM8 cells (human glioblastoma neurosphere cell culture). The experiment can be described thus: GBM8 viability assay (Cell Titer Glo luminescence, 3 days). It is filed as cell-based. As to conditions: 72 h, 3 days incubation. Here is the method:
Example 283: GBM4 and GBM8 Viability Assay
Cell culture medium was prepared from a NSA proliferation kit (Neurocult) and NeuroCult supplements (Stemcell Tech Cat. #05751) and treated with 20 μL of 10 μg/mL rh EGF, 10 μL of 10 μg/mL rh bFGF and 10 μL of 0.2% Heparin. In this medium, human glioblastoma cells were cultured in ultra-low attachment tissue culture flasks until 1×10^6 cells ml was achieved (GBM4 and GBM8 are distinct neurosphere cell cultures derived from these human patient tissues). GBM4 and GBM8 cells were dissociated and 10 mL of media containing 4000 human glioblastoma cells per 90 uL were transferred to an ultra-low binding 96-well plate and incubated at 37° C. overnight. On the following day, 10 μL of a 1% DMSO solution of test compound in assay medium was added to wells containing the cell suspension and the mixture incubated at 37° C. for 3 days. At this time, the plate was removed from the incubator and allowed to reach room temperature. After about 30 minutes, 50 μL of Cell Titer Glo solution was added to each well and the plate shaken for 1 minute at low speed. After 10 minutes luminescence was recorded using a Tecan Safire2 reader.
Reduction in luminescence compared to DMSO only control wells was used to determine the percentage inhibition of cell growth. IC50s were calculated using the % inhibition of luminescence for serial dilutions of compounds fitted to a 4-parameter fit within the Prism (San Diego) curve fitting program.
As to `COc1cccc(NC(=O)Nc2nc(C)cc(NCCCc3ncc[nH]3)n2)c1` [Compound 149], the pIC50 is 5.00 to 6.00.

Consider `COc1cccc(NC(=O)Nc2nc(C)cc(NCC(O)CO)n2)c1` (centres unmarked) [Compound 151], for which the pIC50 was 5.00 to 6.00.

For `CNCCNc1cc(C)nc(NC(=O)Nc2cccc(OC)c2)n1` [Compound 153, 1-(3-methoxyphenyl)-3-(4-methyl-6-((2-(methylamino)ethyl)amino)pyrimidin-2-yl)urea], the pIC50 is 5.00 to 6.00.

With `CNCCCCNc1cc(C)nc(NC(=O)Nc2cccc(OC)c2)n1` [Compound 154], the negative logarithm of the IC50 (pIC50) was 5.00 to 6.00.

Turning to `COc1cccc(NC(=O)Nc2nc(C)cc(NCC3CCCNC3)n2)c1` (centres unmarked) [Compound 155], the negative logarithm of the IC50 (pIC50) was 5.00 to 6.00.

`Cc1cc(NCCCN(C)C)nc(NC(=O)Nc2ccc(F)c(Cl)c2)n1` [Compound 157, 1-(3-chloro-4-fluorophenyl)-3-(4-((3-(dimethylamino)propyl)amino)-6-methylpyrimidin-2-yl)urea] had a pIC50 of more than 6.00.

`Cc1cc(NCCCN)nc(NC(=O)Nc2ccc(F)c(Cl)c2)n1` [Compound 158, 1-(4-((3-aminopropyl)amino)-6-methylpyrimidin-2-yl)-3-(3-chloro-4-fluorophenyl)urea]: the pIC50 is more than 6.00.

Regarding `Cc1cc(NCCN(C)C)nc(NC(=O)Nc2ccc(F)c(Cl)c2)n1` [Compound 159], the pIC50 is 5.00 to 6.00.

As for `Cc1cc(NCCCCN)nc(NC(=O)Nc2ccc(F)c(Cl)c2)n1` [Compound 160], the pIC50 was more than 6.00.

On to `Cc1cc(NCCO)nc(NC(=O)Nc2ccc(F)c(Cl)c2)n1` [Compound 161], for which the pIC50 was more than 6.00.

`Cc1cc(NCCN)nc(NC(=O)Nc2ccc(F)c(Cl)c2)n1` [Compound 162] had a pIC50 of more than 6.00.

With `Cc1cc(NCCCCO)nc(NC(=O)Nc2ccc(F)c(Cl)c2)n1` [Compound 163], the pIC50 was more than 6.00.

In the case of `Cc1cc(NCC(C)O)nc(NC(=O)Nc2ccc(F)c(Cl)c2)n1` (centres unmarked) [Compound 164], the negative logarithm of the IC50 (pIC50) is more than 6.00.

In turn, `CCCNc1cc(C)nc(NC(=O)Nc2ccc(F)c(Cl)c2)n1` [Compound 165] had a pIC50 of more than 6.00.

As to `Cc1cc(NCCOCCO)nc(NC(=O)Nc2ccc(F)c(Cl)c2)n1` [Compound 166], the pIC50 is more than 6.00.

As to `COC(=O)CCNc1cc(C)nc(NC(=O)Nc2ccc(F)c(Cl)c2)n1` [Compound 167], the pIC50 is 5.00 to 6.00.

The compound `CNCCNc1cc(C)nc(NC(=O)Nc2ccc(F)c(Cl)c2)n1` [Compound 169, 1-(3-chloro-4-fluorophenyl)-3-(4-methyl-6-((2-(methylamino)ethyl)amino)pyrimidin-2-yl)urea] showed a pIC50 of more than 6.00.

For `CNCCCNc1cc(C)nc(NC(=O)Nc2ccc(F)c(Cl)c2)n1` [Compound 170], the negative-log IC50 (pIC50) was more than 6.00.

As to `Cc1cc(NCCCN(C)C)nc(NC(=O)Nc2cccc(OC(F)(F)F)c2)n1` [Compound 172, 1-(4-((3-(dimethylamino)propyl)amino)-6-methylpyrimidin-2-yl)-3-(3-(trifluoromethoxy)phenyl)urea], the pIC50 was more than 6.00.

For the compound `Cc1cc(NCCCCN)nc(NC(=O)Nc2cccc(OC(F)(F)F)c2)n1` [Compound 173], the negative logarithm of the IC50 (pIC50) is more than 6.00.

As to `Cc1cc(NCCN(C)C)nc(NC(=O)Nc2cccc(OC(F)(F)F)c2)n1` [Compound 174], the negative logarithm of the IC50 (pIC50) was 5.00 to 6.00.

`Cc1cc(NCCCCO)nc(NC(=O)Nc2cccc(OC(F)(F)F)c2)n1` [Compound 175] had a negative-log IC50 (pIC50) of more than 6.00.

With `Cc1cc(NCCO)nc(NC(=O)Nc2cccc(OC(F)(F)F)c2)n1` [Compound 176], the pIC50 was more than 6.00.

For `Cc1cc(NCCCN)nc(NC(=O)Nc2cccc(OC(F)(F)F)c2)n1` [Compound 177], the pIC50 was more than 6.00.

As for `Cc1cc(NCCN)nc(NC(=O)Nc2cccc(OC(F)(F)F)c2)n1` [Compound 178], the pIC50 was more than 6.00.

Compound `Cc1cc(NCCCN(C)C)nc(NC(=O)Nc2cccc(C(F)(F)F)c2)n1` [Compound 180, 1-(4-((3-(dimethylamino)propyl)amino)-6-methylpyrimidin-2-yl)-3-(3-(trifluoromethyl)phenyl)urea] showed a pIC50 of more than 6.00.
